Tests used:
Test in all cases: in vitro antibacterial evaluation, MIC by broth dilution
Type in all cases: cell-based
[1] = tested on: Escherichia coli; settings: 18 hours at 35° C.
[2] = tested on: Staphylococcus sp.; settings: broth dilution, 18 hours at 35° C.; for MIC Staphylococcus aureus (GC 1131): strain GC 1131; for MIC Staphylococcus aureus (ATCC 29213): strain ATCC 29213; for MIC Staphylococcus aureus (GC 3051): strain GC 3051; for MIC Staphylococcus aureus (GC 3053): strain GC 3053; for MIC Staphylococcus aureus (GC 4541): strain GC 4541; for MIC Staphylococcus aureus (GC 4542): strain GC 4542; for MIC Staphylococcus aureus-SMITH (GC 4543): strain GC 4543; for MIC Staphylococcus aureus (GC 4544): strain GC 4544; for MIC Staphylococcus aureus (GC 4545): strain GC 4545; for MIC Staphylococcus haemolyticus (GC 4546): strain GC 4546; for MIC Coagulase Negative Staphylococcus (GC 4547): strain GC 4547; for MIC Coagulase Negative Staphylococcus (GC 4548): strain GC 4548; for MIC Coagulase Negative Staphylococcus (GC 4549): strain GC 4549; for MIC Coagulase Negative Staphylococcus (GC 4551): strain GC 4551
Protocol: (§1) Methods for in vitro Antibacterial Evaluation (Table 1)
(§2) The minimum inhibitory concentration (MIC), the lowest concentration of the antibiotic which inhibits growth of the test organism, is determined by the broth dilution method using Muller-Hinton II […] (Baltimore Biological Laboratories) following the recommendations of the National Committee for Clinical Laboratory Standards [Methods for dilution antimicrobial susceptibility tests for bacteria that grow aerobically, approved standard M7-A2, National Committee for Clinical Laboratory Standards, Villanova, Pa.].
(§3) An inoculum level of 5×10^5 CFU/mL, and a range of antibiotic concentrations (64-0.06 μg/mL) is used. […] The test organisms include a spectrum of Gram-positive bacteria comprised of Staphylococcus sp., Streptococcus sp. and Enterococcus sp. These organisms include recent clinical isolates that are resistant to methicillin, penicillin and/or vancomycin.

[3] = tested on: Enterococcus sp.; settings: broth dilution, 18 hours at 35° C.
Protocol: as §1, §2, §3

[4] = tested on: Streptococcus sp.; settings: broth dilution, 18 hours at 35° C.
Protocol: as §1, §2, §3

[5] = inoculum 5×10^5 CFU/mL, strain ATCC 29212
[6] = inoculum 5×10^5 CFU/mL, strain GC 2242
[7] = inoculum 5×10^5 CFU/mL, strain GC 2243
[8] = inoculum 5×10^5 CFU/mL, strain GC 2691
[9] = inoculum 5×10^5 CFU/mL, strain GC 3059
[10] = inoculum 5×10^5 CFU/mL, strain GC 4552
[11] = inoculum 5×10^5 CFU/mL, strain GC 4553
[12] = inoculum 5×10^5 CFU/mL, strain GC 4554
[13] = inoculum 5×10^5 CFU/mL, strain GC 4556
[14] = inoculum 5×10^5 CFU/mL, strain GC 4557
[15] = inoculum 5×10^5 CFU/mL, strain GC 4558
[16] = inoculum 5×10^5 CFU/mL, strain GC 6189
[17] = inoculum 5×10^5 CFU/mL, strain ATCC 6301
[18] = inoculum 5×10^5 CFU/mL, strain GC 1894
[19] = inoculum 5×10^5 CFU/mL, strain GC 4563
[20] = inoculum 5×10^5 CFU/mL, strain GC 4564
[21] = inoculum 5×10^5 CFU/mL, strain GC 4565

N=C1NCC(C(O)C2NC(=O)C(Cc3ccc(OC4OC(CO)C(OC5OC6COC(Cc7ccccc7)OC6C(O)C5O)C(O)C4O)cc3)NC(=O)C(CC3CCCCC3)NC(=O)CNC(=O)C(CO)NC(=O)C(C(O)C3CNC(=N)N3C3OC(CO)C(O)C(O)C3O)NC2=O)N1 (stereo not shown) [Example 200]
0.12 µg/mL: MIC Streptococcus agalactiae (GC 4564) [4] | MIC Streptococcus agalactiae (GC 4564) [4, 20]
0.5 µg/mL: MIC Enterococcus faecalis (GC 2242) [3] | MIC Enterococcus faecalis (GC 2242) [3, 6]
1 µg/mL: MIC Escherichia coli (GC 4560) [1] | MIC Staphylococcus aureus (ATCC 29213) [2] | MIC Staphylococcus aureus (GC 3051) [2] | MIC Staphylococcus aureus (GC 4541) [2] | MIC Staphylococcus aureus (GC 4542) [2] | MIC Staphylococcus aureus-SMITH (GC 4543) [2] | MIC Staphylococcus aureus (GC 4545) [2] | MIC Staphylococcus haemolyticus (GC 4546) [2] | MIC Coagulase Negative Staphylococcus (GC 4548) [2] | MIC Coagulase Negative Staphylococcus (GC 4549) [2]
2 µg/mL: MIC Staphylococcus aureus (GC 1131) ([2]; inoculum 5×10^5 CFU/mL) | MIC Staphylococcus aureus (GC 1131) [2] | MIC Staphylococcus aureus (GC 3053) [2] | MIC Staphylococcus aureus (GC 4544) [2] | MIC Coagulase Negative Staphylococcus (GC 4547) [2] | MIC Coagulase Negative Staphylococcus (GC 4551) [2] | MIC Enterococcus faecalis (GC 3059) [3] | MIC Enterococcus faecalis (GC 4552) [3] | MIC Enterococcus faecalis (GC 6189) [3] | MIC Enterococcus faecium (GC 4557) [3] | MIC Enterococcus faecalis (GC 3059) [3, 9] | MIC Enterococcus faecalis (GC 4552) [3, 10] | MIC Enterococcus faecium (GC 4557) [3, 14] | MIC Enterococcus faecalis (GC 6189) [3, 16]
4 µg/mL: MIC Enterococcus avium (GC 4558) [3] | MIC Enterococcus faecalis (ATCC 29212) [3] | MIC Enterococcus faecalis (GC 2691) [3] | MIC Enterococcus faecalis (GC 4553) [3] | MIC Enterococcus faecalis (GC 4554) [3] | MIC Enterococcus faecium (GC 2243) [3] | MIC Enterococcus faecium (GC 4556) [3] | MIC Enterococcus faecalis (ATCC 29212) [3, 5] | MIC Enterococcus faecium (GC 2243) [3, 7] | MIC Enterococcus faecalis (GC 2691) [3, 8] | MIC Enterococcus faecalis (GC 4553) [3, 11] | MIC Enterococcus faecalis (GC 4554) [3, 12] | MIC Enterococcus faecium (GC 4556) [3, 13] | MIC Enterococcus avium (GC 4558) [3, 15]
<0.06 µg/mL: MIC Streptococcus pneumoniae (ATCC 6301) [4] | MIC Streptococcus pneumoniae (GC 1894) [4] | MIC Streptococcus pneumoniae (GC 4565) [4] | MIC Streptococcus pyogenes (GC 4563) [4] | MIC Streptococcus pneumoniae (ATCC 6301) [4, 17] | MIC Streptococcus pneumoniae (GC 1894) [4, 18] | MIC Streptococcus pyogenes (GC 4563) [4, 19] | MIC Streptococcus pneumoniae (GC 4565) [4, 21]
32 µg/mL: MIC Escherichia coli (ATCC 25922) [1] | MIC Escherichia coli (GC 4559) [1]

N=C1NCC(C(O)C2NC(=O)C(CC3CCC(OC4OC(CO)C(OC5OC6COC7(OC6C(O)C5O)C5CC6CC(C5)CC7C6)C(O)C4O)CC3)NC(=O)C(CC3CCCCC3)NC(=O)CNC(=O)C(CO)NC(=O)C(C(O)C3CNC(=N)N3C3OC(CO)C(O)C(O)C3O)NC2=O)N1 (single isomer, unassigned) [Example 223]
64 µg/mL: MIC Staphylococcus aureus (GC 3051) [2] | MIC Staphylococcus aureus (GC 4541) [2] | MIC Staphylococcus aureus (GC 4542) [2] | MIC Staphylococcus aureus-SMITH (GC 4543) [2] | MIC Staphylococcus aureus (GC 4544) [2] | MIC Staphylococcus aureus (GC 4545) [2] | MIC Staphylococcus haemolyticus (GC 4546) [2] | MIC Coagulase Negative Staphylococcus (GC 4547) [2] | MIC Coagulase Negative Staphylococcus (GC 4548) [2] | MIC Coagulase Negative Staphylococcus (GC 4549) [2] | MIC Coagulase Negative Staphylococcus (GC 4551) [2] | MIC Enterococcus avium (GC 4558) [3] | MIC Enterococcus faecalis (GC 4553) [3] | MIC Enterococcus faecium (GC 4557) [3] | MIC Enterococcus faecalis (GC 4553) [3, 11] | MIC Enterococcus faecium (GC 4557) [3, 14] | MIC Enterococcus avium (GC 4558) [3, 15] | MIC Streptococcus pneumoniae (ATCC 6301) [4] | MIC Streptococcus pyogenes (GC 4563) [4] | MIC Streptococcus pneumoniae (ATCC 6301) [4, 17] | MIC Streptococcus pyogenes (GC 4563) [4, 19]
32 µg/mL: MIC Escherichia coli (GC 4560) [1] | MIC Streptococcus pneumoniae (GC 1894) [4] | MIC Streptococcus pneumoniae (GC 1894) [4, 18]
>64 µg/mL: MIC Escherichia coli (ATCC 25922) [1] | MIC Escherichia coli (GC 4559) [1] | MIC Staphylococcus aureus (ATCC 29213) [2] | MIC Staphylococcus aureus (GC 1131) [2] | MIC Staphylococcus aureus (GC 3053) [2] | MIC Enterococcus faecalis (ATCC 29212) [3] | MIC Enterococcus faecalis (GC 2242) [3] | MIC Enterococcus faecalis (GC 2691) [3] | MIC Enterococcus faecalis (GC 3059) [3] | MIC Enterococcus faecalis (GC 4552) [3] | MIC Enterococcus faecalis (GC 4554) [3] | MIC Enterococcus faecalis (GC 6189) [3] | MIC Enterococcus faecium (GC 2243) [3] | MIC Enterococcus faecium (GC 4556) [3] | MIC Enterococcus faecalis (ATCC 29212) [3, 5] | MIC Enterococcus faecalis (GC 2242) [3, 6] | MIC Enterococcus faecium (GC 2243) [3, 7] | MIC Enterococcus faecalis (GC 2691) [3, 8] | MIC Enterococcus faecalis (GC 3059) [3, 9] | MIC Enterococcus faecalis (GC 4552) [3, 10] | MIC Enterococcus faecalis (GC 4554) [3, 12] | MIC Enterococcus faecium (GC 4556) [3, 13] | MIC Enterococcus faecalis (GC 6189) [3, 16] | MIC Streptococcus agalactiae (GC 4564) [4] | MIC Streptococcus pneumoniae (GC 4565) [4] | MIC Streptococcus agalactiae (GC 4564) [4, 20] | MIC Streptococcus pneumoniae (GC 4565) [4, 21]

Source: patent US6914045B2, “Glycopeptide antibiotics” (Wyeth Holdings Corporation, priority 2001, dated 2005)
